{
  "source": "patent US20080009418A1",
  "about": "“Selective Inhibitors” (Alchemia LTD., priority 2004, published 2008)",
  "conditions_in_all_cases": "compound at 10 μM",
  "key": {"Human Melanocortin (MC3)": {"target": "T1, Human Melanocortin (MC3) (Homo sapiens, UniProt P41968)", "T1 construct": "purchased Perkin Elmer Biosignal", "T1 sequence (P41968 whole entry)": "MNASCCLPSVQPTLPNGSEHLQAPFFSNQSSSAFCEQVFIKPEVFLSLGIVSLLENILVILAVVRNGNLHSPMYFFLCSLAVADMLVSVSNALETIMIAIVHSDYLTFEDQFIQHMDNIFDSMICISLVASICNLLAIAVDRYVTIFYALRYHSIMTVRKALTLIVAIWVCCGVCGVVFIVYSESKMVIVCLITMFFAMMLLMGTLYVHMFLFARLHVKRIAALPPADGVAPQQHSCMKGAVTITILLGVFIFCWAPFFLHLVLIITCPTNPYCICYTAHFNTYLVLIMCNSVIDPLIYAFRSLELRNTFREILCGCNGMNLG", "assay": "Radioligand binding, human melanocortin MC3 membranes, FlashPlate, [125I]-NDP-αMSH", "in_short": "(§1)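 Cloned human receptor membranes were coated onto FlashPlate wells and incubated with radioligand and compound (added from a 0.5 mM DMSO daughter plate) for 1 hour at room temperature in the dark. Scintillation counting gave percent inhibition, with DMSO defining total and reference ligand defining non-specific binding.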"}, "Human Melanocortin (MC4)": {"target": "T2, Human Melanocortin (MC4) (Homo sapiens, UniProt P32245)", "T2 construct": "purchased Perkin Elmer Biosignal", "T2 sequence (P32245 whole entry)": "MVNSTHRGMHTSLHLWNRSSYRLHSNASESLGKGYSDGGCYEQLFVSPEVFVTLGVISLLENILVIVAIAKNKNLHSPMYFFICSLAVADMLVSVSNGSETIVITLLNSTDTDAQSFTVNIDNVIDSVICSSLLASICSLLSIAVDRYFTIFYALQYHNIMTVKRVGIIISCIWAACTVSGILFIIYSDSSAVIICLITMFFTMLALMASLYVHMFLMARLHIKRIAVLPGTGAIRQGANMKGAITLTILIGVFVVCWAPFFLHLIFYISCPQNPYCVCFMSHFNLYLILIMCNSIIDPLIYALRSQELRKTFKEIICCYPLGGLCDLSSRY", "assay": "Radioligand binding, human melanocortin MC4 membranes, FlashPlate, [125I]-NDP-αMSH", "in_short": "as §1"}, "[1]": {"target": "T3, Human neuropeptide Y (NPY-Y1) (Homo sapiens, UniProt P25929)", "T3 construct": "purchased Perkin Elmer Biosignal", "T3 sequence (P25929 1-384)": "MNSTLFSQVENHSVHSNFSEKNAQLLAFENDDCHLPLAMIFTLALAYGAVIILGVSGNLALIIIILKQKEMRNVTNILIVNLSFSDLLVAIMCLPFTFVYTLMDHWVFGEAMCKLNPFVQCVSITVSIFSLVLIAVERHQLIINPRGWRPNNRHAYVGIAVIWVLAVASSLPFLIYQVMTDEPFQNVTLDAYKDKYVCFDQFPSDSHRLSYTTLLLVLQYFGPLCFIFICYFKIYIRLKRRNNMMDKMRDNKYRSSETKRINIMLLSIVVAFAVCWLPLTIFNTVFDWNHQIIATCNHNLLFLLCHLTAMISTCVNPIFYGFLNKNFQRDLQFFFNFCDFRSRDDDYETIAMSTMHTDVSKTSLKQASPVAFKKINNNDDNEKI", "assay": "Radioligand binding, human neuropeptide Y NPY-Y1 membranes, FlashPlate, [125I]-PYY", "in_short": "as §1"}, "Human neurokinin (NK1)": {"target": "T4, Human neurokinin (NK1) (Homo sapiens, UniProt P25103)", "T4 construct": "purchased Perkin Elmer Biosignal", "T4 sequence (P25103 whole entry)": "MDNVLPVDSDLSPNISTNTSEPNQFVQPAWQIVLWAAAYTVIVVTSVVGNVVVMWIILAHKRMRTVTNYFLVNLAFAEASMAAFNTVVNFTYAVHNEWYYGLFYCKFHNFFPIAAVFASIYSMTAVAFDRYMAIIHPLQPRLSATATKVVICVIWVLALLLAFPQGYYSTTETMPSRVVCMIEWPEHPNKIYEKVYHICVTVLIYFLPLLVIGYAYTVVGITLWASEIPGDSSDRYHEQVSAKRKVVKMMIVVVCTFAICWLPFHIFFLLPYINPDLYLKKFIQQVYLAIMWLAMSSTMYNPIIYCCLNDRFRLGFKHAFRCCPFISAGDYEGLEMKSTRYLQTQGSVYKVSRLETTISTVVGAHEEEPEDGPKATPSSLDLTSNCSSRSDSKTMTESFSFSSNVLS", "assay": "Radioligand binding, human neurokinin NK1 membranes, filtration, [125I]-Substance P", "in_short": "(§2)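 Percent inhibition of radioligand binding measured on recombinant human membranes: NK1 with [125I]-Substance P, KOP with [3H]-Diprenorphine. Incubation 1 h at room temperature, then harvest onto 0.3% PEI-soaked filters, cold Tris-HCl pH 7.4 washes and scintillation counting; non-specific binding from reference ligand wells.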"}, "Human κ-Opioid (KOP)": {"target": "T5, Human κ-Opioid (KOP) (Homo sapiens, UniProt P41145)", "T5 construct": "purchased Perkin Elmer Biosignal", "T5 sequence (P41145 whole entry)": "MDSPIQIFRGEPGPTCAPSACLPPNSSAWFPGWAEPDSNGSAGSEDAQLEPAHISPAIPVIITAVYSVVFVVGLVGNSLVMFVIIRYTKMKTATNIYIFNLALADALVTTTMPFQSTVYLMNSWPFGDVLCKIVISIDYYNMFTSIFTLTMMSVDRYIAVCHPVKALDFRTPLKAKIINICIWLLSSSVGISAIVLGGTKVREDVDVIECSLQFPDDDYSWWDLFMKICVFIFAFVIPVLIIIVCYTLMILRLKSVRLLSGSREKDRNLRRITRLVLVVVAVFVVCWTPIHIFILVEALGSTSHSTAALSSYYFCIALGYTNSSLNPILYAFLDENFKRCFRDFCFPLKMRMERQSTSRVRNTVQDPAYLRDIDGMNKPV", "assay": "Radioligand binding, human κ-opioid (KOP) membranes, filtration, [3H]-Diprenorphine", "in_short": "as §2"}, "[2]": {"target": "T6, Human melanin-concentrating hormone (MCH1) (Homo sapiens, UniProt Q99705)", "T6 construct": "purchased Perkin Elmer Biosignal", "T6 sequence (Q99705 whole entry)": "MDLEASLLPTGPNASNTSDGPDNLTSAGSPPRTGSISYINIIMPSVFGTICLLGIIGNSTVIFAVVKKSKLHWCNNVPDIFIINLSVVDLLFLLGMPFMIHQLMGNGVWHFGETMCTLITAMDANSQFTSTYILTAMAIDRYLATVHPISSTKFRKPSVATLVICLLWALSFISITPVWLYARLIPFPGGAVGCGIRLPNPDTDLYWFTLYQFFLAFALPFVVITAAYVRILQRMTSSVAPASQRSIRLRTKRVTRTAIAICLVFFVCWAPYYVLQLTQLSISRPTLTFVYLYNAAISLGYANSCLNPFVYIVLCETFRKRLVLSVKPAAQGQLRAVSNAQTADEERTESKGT", "assay": "Radioligand binding, human melanin-concentrating hormone MCH1 membranes, FlashPlate, [125I]-S36057", "in_short": "as §1"}, "Mouse urotensin (mUR2)": {"target": "T7, Mouse urotensin (mUR2) (Mus musculus, UniProt Q8VIH9)", "T7 construct": "purchased Perkin Elmer Biosignal", "T7 sequence (Q8VIH9 1-385)": "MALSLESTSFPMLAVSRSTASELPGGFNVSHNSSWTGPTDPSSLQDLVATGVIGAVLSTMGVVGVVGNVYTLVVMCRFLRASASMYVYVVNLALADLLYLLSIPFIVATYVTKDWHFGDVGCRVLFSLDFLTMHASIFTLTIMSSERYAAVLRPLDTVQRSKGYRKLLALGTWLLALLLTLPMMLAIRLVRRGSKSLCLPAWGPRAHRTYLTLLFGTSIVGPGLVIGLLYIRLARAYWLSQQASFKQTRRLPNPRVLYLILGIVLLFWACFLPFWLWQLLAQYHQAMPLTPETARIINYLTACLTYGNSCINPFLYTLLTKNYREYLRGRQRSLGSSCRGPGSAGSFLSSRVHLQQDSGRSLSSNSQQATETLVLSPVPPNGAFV", "assay": "Radioligand binding, mouse urotensin mUR2 membranes, FlashPlate, [125I]-Urotensin II", "in_short": "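Cloned mouse urotensin (mUR2) receptor membranes from Perkin Elmer Biosignal were immobilized in FlashPlate microplates using a proprietary coating. Each well got 19.5 μl buffer, then 0.5 μl of DMSO, reference ligand, or compound. Adding 5 μl of [125I]-Urotensin II, diluted to 5× final concentration in binding buffer, started binding. Plates were sealed with TopSeal-A and incubated 1 hour at room temperature in the dark. Wells were counted for 30 seconds each on a TopCount after a 60-second delay, and percentage inhibition was calculated.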"}, "Human δ-opioid (DOP)": {"target": "T8, Human δ-opioid (DOP) (Homo sapiens, UniProt P41143)", "T8 construct": "purchased Perkin Elmer Biosignal", "T8 sequence (P41143 whole entry)": "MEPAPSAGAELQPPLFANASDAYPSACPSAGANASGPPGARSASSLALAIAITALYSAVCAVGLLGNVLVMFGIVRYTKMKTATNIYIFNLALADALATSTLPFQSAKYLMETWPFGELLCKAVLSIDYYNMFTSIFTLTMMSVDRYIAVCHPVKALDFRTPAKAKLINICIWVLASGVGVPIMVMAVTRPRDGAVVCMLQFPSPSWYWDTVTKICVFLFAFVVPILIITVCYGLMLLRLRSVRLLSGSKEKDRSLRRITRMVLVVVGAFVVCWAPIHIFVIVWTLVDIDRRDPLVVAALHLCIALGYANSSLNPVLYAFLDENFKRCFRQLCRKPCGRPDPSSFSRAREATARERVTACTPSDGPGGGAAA", "assay": "Radioligand binding, human δ-opioid (DOP) membranes, FlashPlate, [3H]-Bremazocine", "in_short": "as §1"}, "Human μ-opioid (MOP)": {"target": "T9, Human μ-opioid (MOP) (Homo sapiens, UniProt P35372)", "T9 construct": "purchased Perkin Elmer Biosignal", "T9 sequence (P35372 whole entry)": "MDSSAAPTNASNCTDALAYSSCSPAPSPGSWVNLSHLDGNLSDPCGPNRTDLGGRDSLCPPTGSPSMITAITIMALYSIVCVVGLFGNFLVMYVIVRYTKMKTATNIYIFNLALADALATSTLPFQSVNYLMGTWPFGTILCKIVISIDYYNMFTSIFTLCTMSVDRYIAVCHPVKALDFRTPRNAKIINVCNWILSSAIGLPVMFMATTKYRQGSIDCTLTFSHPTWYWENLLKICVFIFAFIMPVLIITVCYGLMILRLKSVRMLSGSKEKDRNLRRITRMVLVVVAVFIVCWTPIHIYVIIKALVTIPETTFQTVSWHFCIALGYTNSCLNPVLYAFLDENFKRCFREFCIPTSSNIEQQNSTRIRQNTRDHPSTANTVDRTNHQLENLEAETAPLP", "assay": "Radioligand binding, human μ-opioid (MOP) membranes, FlashPlate, [3H]-Naloxone", "in_short": "as §1"}, "Human opioid (ORL1)": {"target": "T10, Human opioid (ORL1) (Homo sapiens, UniProt P41146)", "T10 construct": "purchased Perkin Elmer Biosignal", "T10 sequence (P41146 whole entry)": "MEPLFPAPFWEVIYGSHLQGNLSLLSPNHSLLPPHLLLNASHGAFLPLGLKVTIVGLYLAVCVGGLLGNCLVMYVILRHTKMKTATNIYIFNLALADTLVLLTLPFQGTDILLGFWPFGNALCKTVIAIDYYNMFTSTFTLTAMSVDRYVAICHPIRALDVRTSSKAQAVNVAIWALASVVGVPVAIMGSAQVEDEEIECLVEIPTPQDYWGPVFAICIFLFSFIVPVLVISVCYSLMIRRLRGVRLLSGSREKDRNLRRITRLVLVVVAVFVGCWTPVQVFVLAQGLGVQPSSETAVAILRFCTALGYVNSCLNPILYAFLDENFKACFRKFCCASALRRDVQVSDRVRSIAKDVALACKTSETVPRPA", "assay": "Radioligand binding, human opioid ORL1 membranes, FlashPlate, [125I]-Nociceptin", "in_short": "as §1"}, "Human melanocortin (MC5)": {"target": "T11, Human melanocortin (MC5) (Homo sapiens, UniProt P33032)", "T11 construct": "purchased Perkin Elmer Biosignal", "T11 sequence (P33032 whole entry)": "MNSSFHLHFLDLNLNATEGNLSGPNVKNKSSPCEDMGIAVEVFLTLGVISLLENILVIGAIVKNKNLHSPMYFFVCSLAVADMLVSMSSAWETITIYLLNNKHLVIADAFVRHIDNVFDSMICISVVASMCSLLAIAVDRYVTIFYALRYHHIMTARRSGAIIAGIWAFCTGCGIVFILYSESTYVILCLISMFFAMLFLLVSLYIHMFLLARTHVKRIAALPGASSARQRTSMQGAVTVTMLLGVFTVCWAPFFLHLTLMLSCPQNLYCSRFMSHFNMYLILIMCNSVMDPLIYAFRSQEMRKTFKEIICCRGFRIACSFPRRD", "assay": "Radioligand binding, human melanocortin MC5 membranes, FlashPlate, [125I]-NDP-αMSH", "in_short": "as §1"}},
  "data": [
    {"smiles": "CO[C@H]1[C@H](O)[C@@H](COCc2ccc3ccccc3c2)OC(OCc2ccccc2)[C@@H]1NC(=O)CCCN", "note": "(stereo partly drawn) [compound 88]", "values": [
      {"measurement": "A3 radioligand binding inhibition", "setting": "Human Melanocortin (MC3); human melanocortin MC3 membranes", "value": "− (“−” indicates less than 50% inhibition at 10 μM)"},
      {"measurement": "A4 radioligand binding inhibition", "setting": "Human Melanocortin (MC4); human melanocortin MC4 membranes", "value": "− (“−” indicates less than 50% inhibition at 10 μM)"},
      {"measurement": "A9 radioligand binding inhibition", "setting": "[1]; human NPY-Y1 membranes", "value": "− (“−” indicates less than 50% inhibition at 10 μM)"},
      {"measurement": "A8 radioligand binding inhibition", "setting": "Human neurokinin (NK1); human neurokinin NK1 membranes", "value": "+ (“+” indicates greater than 50% inhibition at 10 μM)"},
      {"measurement": "A2 radioligand binding inhibition", "setting": "Human κ-Opioid (KOP); human κ-opioid (KOP) membranes", "value": "− (“−” indicates less than 50% inhibition at 10 μM)"},
      {"measurement": "A6 radioligand binding inhibition", "setting": "[2]; human MCH1 membranes", "value": "− (“−” indicates less than 50% inhibition at 10 μM)"},
      {"measurement": "A11 radioligand binding inhibition", "setting": "Mouse urotensin (mUR2); mouse urotensin mUR2 membranes", "value": "− (“−” indicates less than 50% inhibition at 10 μM)"},
      {"measurement": "A1 radioligand binding inhibition", "setting": "Human δ-opioid (DOP); human δ-opioid (DOP) membranes", "value": "− (“−” indicates less than 50% inhibition at 10 μM)"},
      {"measurement": "A7 radioligand binding inhibition", "setting": "Human μ-opioid (MOP); human μ-opioid (MOP) membranes", "value": "− (“−” indicates less than 50% inhibition at 10 μM)"},
      {"measurement": "A10 radioligand binding inhibition", "setting": "Human opioid (ORL1); human ORL1 membranes", "value": "− (“−” indicates less than 50% inhibition at 10 μM)"},
      {"measurement": "A5 radioligand binding inhibition", "setting": "Human melanocortin (MC5); human melanocortin MC5 membranes", "value": "− (“−” indicates less than 50% inhibition at 10 μM)"}
    ]},
    {"smiles": "N=C(N)NCC(=O)NC1C(OCc2ccc(Cl)cc2)OC(COCc2ccccc2)C(O)C1OCc1ccc(Cl)cc1", "note": "(single isomer, unassigned) [compound 509]", "values": [
      {"measurement": "A3: inhibition of radioligand binding, human melanocortin (MC3)", "setting": "Human Melanocortin (MC3); [125I]-NDP-αMSH, 10 µM", "value": "− (“−” indicates less than 50% inhibition at 10 μM)"},
      {"measurement": "A4: inhibition of radioligand binding, human melanocortin (MC4)", "setting": "Human Melanocortin (MC4); [125I]-NDP-αMSH", "value": "+ (“+” indicates greater than 50% inhibition at 10 μM)"},
      {"measurement": "A9: inhibition of radioligand binding, human neuropeptide Y (NPY-Y1)", "setting": "[1]; [125I]-PYY", "value": "− (“−” indicates less than 50% inhibition at 10 μM)"},
      {"measurement": "A8: inhibition of radioligand binding, human neurokinin (NK1)", "setting": "Human neurokinin (NK1); [125I]-Substance P", "value": "+ (“+” indicates greater than 50% inhibition at 10 μM)"},
      {"measurement": "A2: inhibition of radioligand binding, human κ-opioid (KOP)", "setting": "Human κ-Opioid (KOP); [3H]-Diprenorphine", "value": "− (“−” indicates less than 50% inhibition at 10 μM)"},
      {"measurement": "A6: inhibition of radioligand binding, human melanin-concentrating hormone (MCH1)", "setting": "[2]; [125I]-S36057", "value": "+ (“+” indicates greater than 50% inhibition at 10 μM)"},
      {"measurement": "A11: inhibition of radioligand binding, mouse urotensin (mUR2)", "setting": "Mouse urotensin (mUR2); [125I]-Urotensin II", "value": "− (“−” indicates less than 50% inhibition at 10 μM)"},
      {"measurement": "A1: inhibition of radioligand binding, human δ-opioid (DOP)", "setting": "Human δ-opioid (DOP); [3H]-Bremazocine", "value": "− (“−” indicates less than 50% inhibition at 10 μM)"},
      {"measurement": "A7: inhibition of radioligand binding, human μ-opioid (MOP)", "setting": "Human μ-opioid (MOP); [3H]-Naloxone, 10 µM", "value": "+ (“+” indicates greater than 50% inhibition at 10 μM)"},
      {"measurement": "A10: inhibition of radioligand binding, human opioid (ORL1)", "setting": "Human opioid (ORL1); [125I]-Nociceptin, 10 µM", "value": "− (“−” indicates less than 50% inhibition at 10 μM)"},
      {"measurement": "A5: inhibition of radioligand binding, human melanocortin (MC5)", "setting": "Human melanocortin (MC5); [125I]-NDP-αMSH", "value": "+ (“+” indicates greater than 50% inhibition at 10 μM)"}
    ]},
    {"smiles": "CO[C@H]1[C@H](O)[C@@H](COCc2cccc(O)c2)OC(OCc2ccc3ccccc3c2)[C@@H]1NC(=O)CCCNC(=N)N", "note": "(stereo partly drawn) [compound 152]", "values": [
      {"measurement": "A3 radioligand binding, percentage inhibition", "setting": "Human Melanocortin (MC3); [125I]-NDP-αMSH", "value": "− (“−” indicates less than 50% inhibition at 10 μM)"},
      {"measurement": "A4 radioligand binding, percentage inhibition", "setting": "Human Melanocortin (MC4); [125I]-NDP-αMSH", "value": "− (“−” indicates less than 50% inhibition at 10 μM)"},
      {"measurement": "A9 radioligand binding, percentage inhibition", "setting": "[1]; [125I]-PYY", "value": "− (“−” indicates less than 50% inhibition at 10 μM)"},
      {"measurement": "A8 radioligand binding, percentage inhibition", "setting": "Human neurokinin (NK1); [125I]-Substance P", "value": "− (“−” indicates less than 50% inhibition at 10 μM)"},
      {"measurement": "A2 radioligand binding, percentage inhibition", "setting": "Human κ-Opioid (KOP); [3H]-Diprenorphine", "value": "− (“−” indicates less than 50% inhibition at 10 μM)"},
      {"measurement": "A6 radioligand binding, percentage inhibition", "setting": "[2]; [125I]-S36057", "value": "− (“−” indicates less than 50% inhibition at 10 μM)"},
      {"measurement": "A11 radioligand binding, percentage inhibition", "setting": "Mouse urotensin (mUR2); [125I]-Urotensin II", "value": "− (“−” indicates less than 50% inhibition at 10 μM)"},
      {"measurement": "A1 radioligand binding, percentage inhibition", "setting": "Human δ-opioid (DOP); [3H]-Bremazocine", "value": "− (“−” indicates less than 50% inhibition at 10 μM)"},
      {"measurement": "A7 radioligand binding, percentage inhibition", "setting": "Human μ-opioid (MOP); [3H]-Naloxone", "value": "+ (“+” indicates greater than 50% inhibition at 10 μM)"},
      {"measurement": "A10 radioligand binding, percentage inhibition", "setting": "Human opioid (ORL1); [125I]-Nociceptin", "value": "− (“−” indicates less than 50% inhibition at 10 μM)"},
      {"measurement": "A5 radioligand binding, percentage inhibition", "setting": "Human melanocortin (MC5); [125I]-NDP-αMSH", "value": "− (“−” indicates less than 50% inhibition at 10 μM)"}
    ]}
  ]
}
